The source of these data is PMC11522085, “Studies on the mechanisms of action of MR33317” (Naunyn-Schmiedeberg's Archives of Pharmacology, 2024).

Structures are written as SMILES.

For this assay, the target named is T1, 5-HT4-receptor (5-HT4B membrane preparations) (Homo sapiens, UniProt Q13639).
T1 construct: gene HTR4; 5-HT4B membrane preparations (HTS110M, Millipore), recombinant
Description: radioligand-type competition binding on recombinant 5-HT4B membranes (filtration); partial agonist in cAMP assay. The text has this: radioligand-type competition binding on recombinant 5-HT4B membranes (filtration); partial agonist in cAMP assay on 5-HT4-receptor (5-HT4B membrane preparations) | MR33317 bound with high affinity to recombinant 5-HT4-receptor.

T1 sequence (Q13639 whole entry): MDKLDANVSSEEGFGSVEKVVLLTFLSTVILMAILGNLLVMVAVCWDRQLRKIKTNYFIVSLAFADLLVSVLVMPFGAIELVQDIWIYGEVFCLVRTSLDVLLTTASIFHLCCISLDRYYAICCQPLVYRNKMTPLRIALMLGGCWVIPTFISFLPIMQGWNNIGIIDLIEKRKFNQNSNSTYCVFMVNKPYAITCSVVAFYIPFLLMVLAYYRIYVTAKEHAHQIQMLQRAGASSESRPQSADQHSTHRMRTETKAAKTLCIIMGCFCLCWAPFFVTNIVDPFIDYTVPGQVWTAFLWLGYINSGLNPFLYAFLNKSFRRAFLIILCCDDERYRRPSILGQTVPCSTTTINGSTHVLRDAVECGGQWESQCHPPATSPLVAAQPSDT

As a reminder, the Ki is the equilibrium dissociation constant of an inhibitor or competing ligand from its target. For `COc1cc(N)c(Cl)cc1C(=O)CCC1CCN(Cc2cccc(N)c2)CC1` [MR33317], the inhibition constant Ki amounted to 42.5 ± 2.6 nM.
